Assay results published in US11786513B2, “Compositions comprising berberine” (INDENA S.P.A., priority 2018, dated 2023).

Experiments:
[1] = oral administration; cited from earlier work
[2] = Solubility test in simulated biological fluids (FaSSGF), UPLC; assay type: physicochemical; conditions: Fasted-State Simulated Gastric Fluid (FaSSGF), fassgf or other biorelevant, thermodynamic from solid, pH 1.6, samples containing equal amounts of BBR
Method: The solubility test was conducted by comparing samples containing equal amounts of BBR. […] The analysis was conducted by the UPLC (Ultra High Performance Liquid Chromatography) method described below: ANALYSIS CONDITIONS: Flow rate: 0.4 ml/minute; Detection: 348 nm. SAMPLE SOLUTION: 30 mg in 200 ml (Chromatogram of a typical sample of ˜0.15 mg/ml, in FIG. 1). STANDARD SOLUTION: 10 mg of pure reference BBR in 200 ml of methanol (Standard solution ˜0.05 mg/ml, typical chromatogram in FIG. 2). The solubility test was conducted using Fasted-State Simulated Gastric Fluid (FaSSGF), prepared as reported below, as solvent. 1) Preparation of an NaCl/HCl solution for FaSSGF (1 litre): 2 g of NaCl was dissolved in […] of purified water, the pH was adjusted to 1.6 with HCl, and the mixture was made up to volume with purified water (1 litre). 2) 0.06 g of powder* (FaSSGF—Biorelevant media) was added to about 500 ml of the NaCl/HCl solution at room temperature and made up to volume (1 l) with the NaCl/HCl solution to obtain a clear, ready-for-use liquid. *Final sodium taurocholate 0.08 mM, final lecithin 0.02 mM

| solubility [2] [µg/mL] | Compound | fraction which reaches the systemic circulation [1] [%] | oral absorption [1] |
| --- | --- | --- | --- |
| – | COc1ccc2cc3[n+](cc2c1OC)CCc1cc2c(cc1-3)OCO2 [BBR, Berberine] | 0.36 | ≤ 0.5 % of the administered dose |
| 113 | COc1ccc2cc3[n+](cc2c1OC)CCc1cc2c(cc1-3)OCO2 [Reference 1, berberine] | – | – |
